# Reference: PubChem BioAssay AID1902 (Broad Institute, 2009)
# Active and inactive are the calls of the source.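 Rule for the calls: active = EC50 no more than a set limit of log units above the highest dose; inactive = the rest.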
# Biological target: S. pyogenes SKKanGAS, kanamycin survival, BacTiterGlo, 6 h
# Experiment: SKKanGAS survival reduction under kanamycin, dose response, streptokinase promoter inhibitor project, SKKanGAS strain, luminescence, dose confirmation (AID 1902);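 note: lower survival reflects blocked streptokinase promoter driving kanamycin resistance gene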
row,Structure (SMILES),EC50
1,COCCn1c(N)c(C(=O)NS(=O)(=O)c2ccc(C)cc2)c(=O)[nH]c1=O,> 15 µM (inactive)
2,CNC[C@H](Cc1ccccc1)NC[C@@H](Cc1cccc2ccccc12)NCCc1ccc(C)cc1,4.28 µM
3,COc1cccc(/C=N/Nc2nc(Nc3ccc([N+](=O)[O-])cc3)nc(N3CCCC3)n2)c1O,1.18 µM
4,CC(C)(C)c1ccc(C(=O)NNC(=S)NC(=O)c2cccnc2)cc1,0.249 µM
5,CCOC(=O)c1c(NC(=O)c2c(N)n(CCCOC)c3nc4ccccc4nc23)sc2c1CCCC2,8.85 µM
6,O=C(/C=C/c1ccccc1)c1cc(Br)ccc(=O)c1O,1.33 µM
7,CC(C)c1ccc(OCC(=O)NNC(=S)NC(=O)C2CC2)cc1,0.797 µM
8,CCCOc1ccc(C(=O)NNC(=S)NC(=O)c2ccccc2[N+](=O)[O-])cc1,1.8 µM
9,CC(C)C(=O)Nc1ccc(C(=O)NNC(=S)NC(=O)c2cccs2)cc1,6.57 µM
10,CCn1c(=O)c(C(=O)NNC(=O)c2ccccc2)c(O)c2ccccc21,0.839 µM
11,COc1ccc2[nH]c3c(C)c4ccncc4c(C)c3c2c1,1.87 µM
12,CCN1/C(=C/C=C/c2oc3ccc(-c4ccccc4)cc3[n+]2CC)Oc2ccc(-c3ccccc3)cc21,2.07 µM
13,CC(=O)NC(c1ccc(C)cc1)c1cc(Cl)c2cccnc2c1O (stereo not drawn),1.42 µM
14,CCCCCCCCCCOC(=O)Cn1c(COc2cccc(C)c2)[n+](C)c2ccccc21,2.83 µM
15,CN1C(=O)/C(=C/c2ccccc2Cl)Sc2ccc(C(=O)NCc3cccnc3)cc21,4.69 µM
16,CN(C(=O)CSc1nc(-c2ccc(C(C)(C)C)cc2)c(C#N)c(=O)[nH]1)C1CCCCC1,1.36 µM
17,COc1ccc(OC)c(CCNC(=O)C(=O)Nc2ccc3nc4n(c(=O)c3c2)CCCCC4)c1,10.1 µM
18,Cc1cc(NC(=O)c2ccc3c(c2)OCCO3)ccc1NC(=O)c1cc2ccccc2o1,10.1 µM
19,CCCCNc1c(-c2ccc(OC)c(SC3CCCCC3)c2)nc2cnccn12,3.62 µM
20,CCC(=O)Oc1ccc(-c2nc(-c3cccnc3)no2)cc1,4.3 µM
21,COC(C(=O)Nc1ccnn1C1CCN(Cc2nccs2)CC1)c1ccccc1 (stereo not drawn),> 15 µM (inactive)
22,Cc1ccc2c(=O)[nH]c(Nc3nc(C)cc(-c4ccccc4)n3)nc2c1,3.37 µM
23,Nc1n[nH]c(C2CC2)c1N=Nc1ccc(Cl)c(Cl)c1,2.05 µM
24,Cc1cc(C)n(-c2nc(NCCCO)c3c4c(sc3n2)CCCC4)n1,2.2 µM
25,COc1ccc(/C=N\NC(=O)c2cc(O)c(O)c(O)c2)cc1COc1ccc(C(=O)OCC(C)C)cc1,7.28 µM
26,COc1ccc(CCNC(=O)c2cccc(NS(=O)(=O)c3ccccc3F)c2)cc1OC,> 15 µM (inactive)
27,Nc1c(-c2ccccc2)c(CSc2nc3ccccc3[nH]2)nn1-c1cccc(Cl)c1,1.51 µM

row,Structure (SMILES),EC50
1,CC(/C=C1\SC(=S)N(NS(=O)(=O)c2ccccc2)C1=O)=C\c1ccccc1,5.38 µM
2,C=CCN1C(=O)/C(=C/c2ccc(OC(C)=O)c(OCC)c2[N+](=O)[O-])SC1=S,1.62 µM
3,COc1ccc(CCNC(=O)CSc2nncn2N)cc1OC,> 15 µM (inactive)
4,O=C1NC(=S)/C(=C\c2ccc(-c3ccccc3Cl)o2)S1,2.94 µM
5,C/C(=N\Nc1nc2ccc(Cl)cc2o1)c1ccccc1,2.33 µM
6,COc1cc2nc(=S)n3[nH]c(COc4ccccc4C)nc3c2cc1OC,2.28 µM
7,CCOC(=O)C(C(=O)OCC)c1cc(Br)c2noc3c2c1C(=O)c1ccccc1-3,3.7 µM
8,COc1ccc2c(c1)c(CC(=O)NCc1cc([N+](=O)[O-])ccc1O)c(C)n2C(=O)c1ccc(Cl)cc1,9.89 µM
9,CCS(=O)(=O)Nc1ccc(-c2cc(-c3ccccc3)c3cc(C)ccc3n2)cc1,4.03 µM
10,Cc1[nH]n(-c2ccccc2)c(=O)c1/C=N/NC(=O)c1ccccc1F,1.12 µM
11,Cc1ccc(-c2cc(-c3ccccc3Cl)[nH]n2)c(O)c1,2.19 µM
12,CCNc1nc(Oc2c(Cl)cccc2Cl)cc(C(F)(F)F)n1,6.58 µM
13,COc1cccc(-c2coc3cc4oc(=O)c(CCC(=O)O)c(C)c4cc23)c1,5.12 µM
14,O=C(NC(=S)NNC(=O)[C@H]1C[C@@H]1c1ccccc1)c1cccc(F)c1,0.756 µM
15,COc1ccc(-n2c(SCC(=O)Nc3ccccc3)nc(O)cc2=O)cc1,15.2 µM
16,CCOc1ccc(C(=O)N/N=C(\c2ccccc2)c2ccccn2)cc1,5.71 µM
17,Cc1ccc(/C=C/c2ccc(=O)n(Cc3ccccc3Cl)n2)cc1,6 µM
18,CC(=O)Nc1ccc(C#Cc2ccc(NC(C)=O)cc2)cc1,1.19 µM
19,Oc1c(C(Nc2cccc(C(F)(F)F)c2)c2cccnc2)ccc2cccnc12 (stereo not drawn),1.53 µM
20,CCCCCc1ccc(OCCCC[n+]2ccccc2)c(CCCCC)c1,7.07 µM
21,Cc1cc(C)c(COc2ccc(/C=N/n3c(C)n[nH]c3=S)cc2)c(C)c1,5.33 µM
22,CC/C(=C(\c1ccccc1)c1ccc(OCCN(C)C)cc1)c1ccccc1,6.17 µM
23,CC(C)CN1C(=S)SC(C)(C)C1n1oc(=O)n(-c2ccc(Cl)cc2)c1=O (stereo not drawn),4.33 µM
24,COc1ccc(NC(=O)CN(C)C(=O)/C=C/c2cn(-c3ccccc3)nc2-c2ccc(C)cc2)cc1,8.68 µM
25,CCCCNc1c(-c2ccc(SC3CCCCC3)cc2)nc2ccccn12,3.87 µM
26,Cc1cc(C)n(C(=O)/C(C#N)=N/Nc2cc(Cl)cc(Cl)c2)n1,1.76 µM
